Experimental data reported in the SangsterLogP compilation.
Where a SMILES comes first, the peptide text is derived from it. [ ]: non-standard residue; d: D form. Orn = NCCC[CH](N)C(=O)O

Experiment: method code SF-AS, from DOI: 10.1002/jps.2600830720, PMID: 7965659

Work on CC[C@H](C)[C@H](NC(=O)[C@H](CC(=O)O)NC(C)=O)C(=O)N[C@@H](Cc1ccccc1)C(N)=O yielded a logD (pH 2.0) of 0.61.
With CC(=O)NC(CCCN)C(=O)NC(Cc1ccccc1)C(=O)NC(CC(C)C)C(N)=O (stereo not drawn) (Ac-[Orn]-Phe-Leu-NH2; configuration not given here) the logD (pH 10.0) was 0.54.
In the case of CC[C@H](C)[C@H](NC(=O)[C@H](CCC(=O)O)NC(C)=O)C(=O)N[C@@H](Cc1ccccc1)C(N)=O (Ac-Glu-Ile-Phe-NH2), the logD (pH 2.0) is reported as 0.43.
CC(=O)NC(CC(C)C)C(=O)NC(CCCN)C(=O)NC(Cc1ccccc1)C(N)=O (stereo unspecified) (Ac-Leu-[Orn]-Phe-NH2; configuration not given here) showed a logD (pH 10.0) of 0.53.
Work on CC(=O)N[C@@H](Cc1ccccc1)C(=O)N[C@@H](CC(=O)O)C(=O)N[C@@H](CC(C)C)C(N)=O yielded a logD (pH 2.0) of 0.39.
In the case of CC[C@H](C)[C@H](NC(C)=O)C(=O)N[C@@H](CCSC)C(=O)N[C@@H](Cc1ccccc1)C(N)=O (Ac-Ile-Met-Phe-NH2), the logD (pH 7.0) is reported as 1.28.
Compound CSCC[C@H](NC(C)=O)C(=O)N[C@H](C(N)=O)C(C)C has a logD (pH 7.0) of -0.28.
With CCC(C)C(NC(=O)C(Cc1c[nH]cn1)NC(C)=O)C(=O)NC(Cc1ccccc1)C(N)=O (stereo not drawn) (Ac-His-Ile-Phe-NH2; configuration not given here) the logD (pH 10.0) was 0.44.
CSCC[C@H](NC(=O)[C@H](C)NC(C)=O)C(=O)N[C@H](C(N)=O)C(C)C gave a logD (pH 7.0) of -0.63.
Work on CC(=O)NC(Cc1ccccc1)C(=O)NC(Cc1c[nH]c2ccccc12)C(=O)NC(Cc1cnc[nH]1)C(N)=O (stereo not drawn) (Ac-Phe-Trp-His-NH2; configuration not given here) yielded a logD (pH 10.0) of 1.
Work on CC(=O)N[C@@H](CC(C)C)C(=O)N[C@@H](CCC(=O)O)C(=O)N[C@@H](Cc1ccccc1)C(N)=O yielded a logD (pH 2.0) of 0.48.
For CC(=O)N[C@@H](CC(C)C)C(=O)N[C@@H](CC(=O)O)C(=O)N[C@@H](CC(C)C)C(N)=O, the logD (pH 2.0) was 0.16.
With CC(=O)NC(Cc1c[nH]c2ccccc12)C(=O)NC(Cc1cnc[nH]1)C(=O)NC(C(N)=O)C(C)C (stereo not drawn) (Ac-Trp-His-Val-NH2; configuration not given here) the logD (pH 10.0) was 0.31.
With CC(=O)NCC(=O)N[C@@H](Cc1ccccc1)C(=O)N[C@@H](Cc1c[nH]cn1)C(N)=O the logD (pH 10.0) was -0.92.
CC(=O)NC(Cc1ccccc1)C(=O)NC(Cc1c[nH]cn1)C(=O)NC(CC(C)C)C(N)=O (stereo not drawn) (Ac-Phe-His-Leu-NH2; configuration not given here) gave a logD (pH 10.0) of 0.64.
Compound CC[C@H](C)[C@H](NC(C)=O)C(=O)N[C@@H](Cc1c[nH]cn1)C(=O)N[C@H](C(N)=O)C(C)C has a logD (pH 10.0) of -0.24.
Compound CC(=O)NC(Cc1ccccc1)C(=O)NC(CCC(=O)O)C(=O)NC(Cc1ccccc1)C(N)=O (stereo not drawn) (Ac-Phe-Glu-Phe-NH2; configuration not given here) has a logD (pH 2.0) of 0.65.
CC[C@H](C)[C@H](NC(C)=O)C(=O)N[C@@H](C)C(=O)N[C@H](C(N)=O)C(C)C gave a logD (pH 7.0) of -0.21.
In the case of CCC(C)C(NC(=O)C(CC(C)C)NC(C)=O)C(=O)NC(CCC(=O)O)C(N)=O (stereo not drawn) (Ac-Leu-Ile-Glu-NH2; configuration not given here), the logD (pH 2.0) is reported as 0.07.
For CSCC[C@H](NC(C)=O)C(=O)N[C@@H](Cc1ccccc1)C(N)=O, the logD (pH 7.0) was 0.42.
For CC(=O)NC(CCCN)C(=O)NC(Cc1ccccc1)C(N)=O (stereo unspecified), the logD (pH 10.0) was -0.41.
In the case of CC(=O)N[C@@H](CC(=O)O)C(=O)N[C@@H](Cc1ccccc1)C(=O)N[C@@H](CC(C)C)C(N)=O, the logD (pH 2.0) is reported as 0.4.
Work on CCC(C)C(NC(C)=O)C(=O)NC(CC(C)C)C(=O)NC(CC(=O)O)C(N)=O (stereo not drawn) (Ac-Ile-Leu-Asp-NH2; configuration not given here) yielded a logD (pH 2.0) of -0.04.
In the case of CC[C@H](C)[C@H](NC(=O)[C@H](CCCN)NC(C)=O)C(=O)N[C@H](C(N)=O)C(C)C, the logD (pH 10.0) is reported as -0.43.
For CC(=O)N[C@@H](CCC(=O)O)C(=O)N[C@@H](Cc1ccccc1)C(=O)N[C@@H](CC(C)C)C(N)=O, the logD (pH 2.0) was 0.32.
For CC(=O)NC(CCCN)C(=O)NC(CC(C)C)C(N)=O (stereo unspecified) (Ac-[Orn]-Leu-NH2; configuration not given here), the logD (pH 10.0) was -0.71.
